# From patent US6492391B1, “Crystal modification d of 8-cyano-1-cyclopropyl-7-(1s, 6s- 2,8-diazabicyclo-[4.3.0]nonan-8-yl)-6-fluoro-1,4- dihydro-4-oxo-3-quinolinecarboxylic acid” (Bayer Aktiengesellschaft, priority 1999, dated 2002)
# Columns and labels:
# [1] = hygroscopicity of the solid; type: physicochemical; settings: powder obtained by the prior-art preparation process
# Text: The partially amorphous powder which is obtained by the preparation process outlined above is furthermore hygroscopic. However, amorphous solids, and in particular hygroscopic solids, are difficult to handle when being processed pharmaceutically since, for example, they have low bulk densities and unsatisfactory flow properties. Moreover, the handling of hygroscopic solids requires special work techniques and apparatuses to obtain reproducible results, for example with respect to the active compound content or the stability of the solid formulations produced.
# [2] = storage stability of the crystal modification; type: physicochemical; settings: prolonged storage; solid state
# Text: For these reasons, it is highly suitable for preparing tablets or other solid formulations. Owing to its stability, it gives these formulations the desired long-lasting storage stability. Using the crystal modification D, it is therefore possible to prepare, in a defined and targeted manner, stable solid preparations of CCDC.
# pathogenic bacteria = assay: activity against pathogenic bacteria; settings: human or veterinary medicine
# Text: Its broad area of use corresponds to that of CCDC.
SMILES,hygroscopicity [1],stability of the crystal modification on storage [2],activity against pathogenic bacteria (pathogenic bacteria)
"N#Cc1c(N2C[C@@H]3CCCN[C@@H]3C2)c(F)cc2c(=O)c(C(=O)O)cn(C3CC3)c12 [partially amorphous powder, 8-cyano-1-cyclopropyl-7-(1S,6S-2,8-diazabicyclo[4.3.0]nonan-8-yl)-6-fluoro-1,4-dihydro-4-oxo-3-quinolinecarboxylic acid]",hygroscopic,–,–
"N#Cc1c(N2C[C@@H]3CCCN[C@@H]3C2)c(F)cc2c(=O)c(C(=O)O)cn(C3CC3)c12 [CCDC of the crystal modification D, 8-cyano-1-cyclopropyl-7-(1S,6S-2,8-diazabicyclo[4.3.0]nonan-8-yl)-6-fluoro-1,4-dihydro-4-oxo-3-quinolinecarboxylic acid]",–,"surprisingly stable and does not change into another crystal modification or the amorphous form, even on prolonged storage",highly active
